Experimental data reported in patent US7250401B2, “Therapeutic compositions” (Advanced Therapeutics and Diagnostics, LC, priority 2001, dated 2007).

Assay: Reaction with thionitrobenzoate (detection of thiol-reactive substances, loss of absorbance at 412 nm)
Assay type: physicochemical
Settings: for rate of reaction with thionitrobenzoate: aqueous solution at pH 7 and 25° C.
Method: A stock solution of 5-thio-2-nitrobenzoate (hereafter referred to as thionitrobenzoate) was prepared by reduction of 5,5′-dithiobis(2-nitrobenzoic acid) (hereafter referred to as DTNB, Aldrich Chemical Company). This stock solution was prepared by mixing 0.1 ml of 0.1 M DTNB dissolved in ethanol (396 mg of DTNB in 10 ml of ethanol), 0.1 ml of 1 M aqueous potassium phosphate buffer (prepared by mixing equal volumes of 1 M monobasic potassium phosphate with 1 M dibasic potassium phosphate), and 0.025 ml of 1 M sodium borohydride dissolved in 1 M NaOH on ice. After incubating this mixture for 10 minutes at ice temperature, 0.1 mL of 1 M monobasic potassium phosphate was added and the resultant solution was diluted to a final volume of 2 ml by addition of 1.675 ml of water.
An alternate method for preparation of a stock solution of thionitrobenzoate involves the use of 2-mercaptoethanol as reductant, in place of sodium borohydride. In this method a 10 mM solution of DTNB was prepared by mixing 39.6 mg of DTNB with 17 mg of sodium bicarbonate and 4 ml of ice-cold water. After allowing the effervescence to subside, this solution was mixed with 0.01 ml of 0.5 M trisodium ethylenediaminetetracetate and 0.1 ml of 1 M potassium phosphate buffer, then diluted to a final volume of 10 ml with water. A separate stock of 10 mM 2-mercaptoethanol was prepared by dilution of neat 2-mercaptoethanol (14.3 M) with water (serial dilution of 0.01 ml of neat 2-mercaptoethanol to 1 ml to give 0.143 M and then dilution of 0.07 ml of this solution to a final volume of 1 ml to give 10 mM). The stock of 8.7 mM thionitrobenzoate was prepared by mixing 2 ml of 1 M potassium phosphate buffer with 0.2 ml of 10 mM 2-mercaptoethanol and 0.1 ml of 10 mM aqueous DTNB.
If 0.01 ml of the 10 mM stock of thionitrobenzoate, obtained by sodium borohydride reduction of DTNB, was diluted with 0.89 ml of water and 0.1 ml of 1 M phosphate buffer, it gave an absorbance at 412 nm of 1.36 in a 1 cm pathlength cuvette. If 0.01 ml of the 8.7 mM stock of thionitrobenzoate obtained by 2-mercaptoethanol reduction of DTNB was diluted with 0.89 ml of water and 0.1 ml of 1 M phosphate buffer, it gave an absorbance at 412 nm of 1.18 in a 1 cm pathlength cuvette. […] (4 M^−1 s^−1).
(<0.05 M^−1 s^−1). DECOSMe (EXAMPLE 4) reacted with thionitrobenzoate under these conditions at a rate of 4 M^−1 s^−1. DETC-MeSO2 (EXAMPLE 5) reacted with thionitrobenzoate under these conditions at a rate of 0.4 M^−1 s^−1. S-Methyl-O-(N,N-diethylcarbamoyl)sulfinate (DECO2SMe, prepared by rearrangement of DETC-MeSO2 under the conditions described in EXAMPLE 4) reacted with thionitrobenzoate under these conditions at a rate of 14 M^−1 s^−1.

Structure (SMILES) | rate of reaction with thionitrobenzoate, prior to rearrangement to DECOSMe (0.01 ml of 5 mM aqueous solution, freshly synthesized, anaerobic conditions, up to 24 hours) | rate of reaction with thionitrobenzoate | half time of first-order decay of absorbance at 412 nm (0.01 ml of 0.1 M aqueous solution added to thionitrobenzoate assay mixture, 25° C.) | rate of reaction with thionitrobenzoate (from first-order decay of absorbance at 412 nm) (0.01 ml of 0.1 M aqueous solution added, 25° C.)
CCN(CC)C(=O)[S+](C)[O-] (stereo not drawn) [DETC-MeSO, S-Methyl-N,N-Diethylthiolcarbamate Sulfoxide] | less than 0.01 M^−1 s^−1 | – | – | –
CCN(CC)C(=O)OS(C)=O (stereo not drawn) [DECO2SMe, S-Methyl-O-(N,N-diethylcarbamoyl)sulfinate] | – | 14 M⁻¹ s⁻¹ | – | –
CCN(CC)C(=O)S(C)(=O)=O [DETC-MeSO2, S-Methyl-N,N-Diethylthiolcarbamate Sulfone] | – | 0.4 M⁻¹ s⁻¹ | – | –
CCN(CC)C(=O)OSC [DECOSMe, S-Methyl-O-(N,N-Diethylcarbamoyl)Sulfenate] | – | 4 M⁻¹ s⁻¹ | 2.9 min | 4 M⁻¹ s⁻¹
